# Measurements published in patent publication US5185366A, “Method for treatment and prevention of diseases caused by enveloped viruses, including herpes simplex virus types 1 and 2 diseases, using 3,4-dihydroxy-2H-benzopyran-2H-one” (Ohio State University Research Foundation, priority 1990, dated 1993).
# Key:
# HSV = settings: cited from earlier work
# enveloped viruses = settings: cited from earlier work
# viruses having no lipids = settings: cited from earlier work
# enveloped virus .phi. 6 = settings: cited from earlier work
# HSV-2 [1] = assay: Intracellular activity, inhibition of plaque forming units, HSV-2; type: cell-based, Herpes simplex virus type 2; settings: Human alphaherpesvirus 2, 500 μM, one experiment, n=3 wells, P<0.02; read-out: inhibition (PFU), virus-infected cells
# [2] = tested on: herpes simplex virus type 1 (HSV-1); settings: cited from earlier work
# HSV-2 [3] = assay: Extracellular activity, inhibition of plaque forming units, HSV-2; settings: 500 μM, P>0.05
# hepatitis B virus (HBV) = settings: 5-250 μg/mL, Kessler et al.; cited from earlier work
# HBV DNA polymerase = settings: 5-250 μg/mL, Kessler et al.; cited from earlier work
compound,measurement,setting,value
"Cc1cc(C(C)(C)C)c(O)c(C(C)(C)C)c1 [BHT, butylated hydroxytoluene]",IC50,"HSV; Snipes et al., read-out: concentration causing 50% inactivation of HSV",70 to 160 µM
same,inactivation of viruses that contain lipids,enveloped viruses,readily inactivated
same,inactivation of viruses having no lipids,viruses having no lipids,comparatively insensitive
C/C(=C\CO)CCC[C@H](C)CCC[C@H](C)CCCC(C)C [phytol],concentration inhibiting HSV,HSV,0.01 to 0.1 mM
same,concentration inhibiting enveloped virus .phi. 6,enveloped virus .phi. 6,10^-6 to 10^-4 mM
"CC(C)(Oc1ccc(Cl)cc1)C(=O)O [clofibric acid, reference compound]",inhibition at 500 µM,HSV-2 [1],66 ± 6%
same,anti-HSV-1 activity (inhibition),"[2]; 500 μM, Mehl",45%
same,inhibition of replication of HSV-1,[2]; BGM 70 cells,inhibit replication of herpes simplex virus type 1 (HSV-1)
same,"inhibition, extracellular treatment of HSV-2",HSV-2 [3],no significant (P>0.05) inhibition
C[C@@H]1[C@H](O)[C@@H](C)/C=C/C=C/C=C/C=C/C=C/C=C/C=C/[C@H](O[C@@H]2O[C@H](C)[C@@H](O)[C@H](N)[C@@H]2O)C[C@@H]2O[C@](O)(C[C@@H](O)C[C@@H](O)[C@H](O)CC[C@@H](O)C[C@@H](O)CC(=O)O[C@H]1C)C[C@H](O)[C@H]2C(=O)O [amphotericin B],effect on HBV particle / envelope,hepatitis B virus (HBV),"changes in electron microscopic appearance of the virus, increased penetration of negative stain into the lipid envelope, disruption of the particle"
same,increase in density of HBV,hepatitis B virus (HBV),1.165 to 1.225 g/mL
same,HBV DNA polymerase activity,HBV DNA polymerase,concentration dependent increase in HBV DNA polymerase activity
